Assays:
[1] = tested on: SW620, PC3 and NCI-H23 cancer cell lines; assay: SRB cytotoxicity, range over three human cancer cell lines; assay type: cell-based; conditions: read-out: Cytotoxicity IC50 values (range over cell lines)
[2] = tested on: NCI-H23 (lung cancer) cells; assay: SRB cytotoxicity assay, NCI-H23; assay type: cell-based; conditions: Homo sapiens, NCI-H23, 48 h, read-out: Cytotoxicity IC50, NCI-H23
[3] = tested on: PC3 (prostate cancer) cells; assay: SRB cytotoxicity assay, PC3; assay type: cell-based; conditions: Homo sapiens, 48 h, read-out: Cytotoxicity IC50, PC3
[4] = tested on: SW620 (colon cancer) cells; assay: SRB cytotoxicity assay, SW620; assay type: cell-based; conditions: Homo sapiens, SW-620, 48 h, read-out: Cytotoxicity IC50, SW620
[5] = tested on: HDAC (Hela cell nuclear extract); assay type: biochemical; conditions: for fold higher HDAC IC50 than that of SAHA: Hela cell nuclear extract; for fold more potent than SAHA: HDAC inhibitory activity and cytotoxicity together
[6] = target: T1, HDAC6 (Homo sapiens, UniProt Q9UBN7); assay: HDAC6 enzyme assay; assay type: biochemical
T1 sequence (Q9UBN7 1-1215): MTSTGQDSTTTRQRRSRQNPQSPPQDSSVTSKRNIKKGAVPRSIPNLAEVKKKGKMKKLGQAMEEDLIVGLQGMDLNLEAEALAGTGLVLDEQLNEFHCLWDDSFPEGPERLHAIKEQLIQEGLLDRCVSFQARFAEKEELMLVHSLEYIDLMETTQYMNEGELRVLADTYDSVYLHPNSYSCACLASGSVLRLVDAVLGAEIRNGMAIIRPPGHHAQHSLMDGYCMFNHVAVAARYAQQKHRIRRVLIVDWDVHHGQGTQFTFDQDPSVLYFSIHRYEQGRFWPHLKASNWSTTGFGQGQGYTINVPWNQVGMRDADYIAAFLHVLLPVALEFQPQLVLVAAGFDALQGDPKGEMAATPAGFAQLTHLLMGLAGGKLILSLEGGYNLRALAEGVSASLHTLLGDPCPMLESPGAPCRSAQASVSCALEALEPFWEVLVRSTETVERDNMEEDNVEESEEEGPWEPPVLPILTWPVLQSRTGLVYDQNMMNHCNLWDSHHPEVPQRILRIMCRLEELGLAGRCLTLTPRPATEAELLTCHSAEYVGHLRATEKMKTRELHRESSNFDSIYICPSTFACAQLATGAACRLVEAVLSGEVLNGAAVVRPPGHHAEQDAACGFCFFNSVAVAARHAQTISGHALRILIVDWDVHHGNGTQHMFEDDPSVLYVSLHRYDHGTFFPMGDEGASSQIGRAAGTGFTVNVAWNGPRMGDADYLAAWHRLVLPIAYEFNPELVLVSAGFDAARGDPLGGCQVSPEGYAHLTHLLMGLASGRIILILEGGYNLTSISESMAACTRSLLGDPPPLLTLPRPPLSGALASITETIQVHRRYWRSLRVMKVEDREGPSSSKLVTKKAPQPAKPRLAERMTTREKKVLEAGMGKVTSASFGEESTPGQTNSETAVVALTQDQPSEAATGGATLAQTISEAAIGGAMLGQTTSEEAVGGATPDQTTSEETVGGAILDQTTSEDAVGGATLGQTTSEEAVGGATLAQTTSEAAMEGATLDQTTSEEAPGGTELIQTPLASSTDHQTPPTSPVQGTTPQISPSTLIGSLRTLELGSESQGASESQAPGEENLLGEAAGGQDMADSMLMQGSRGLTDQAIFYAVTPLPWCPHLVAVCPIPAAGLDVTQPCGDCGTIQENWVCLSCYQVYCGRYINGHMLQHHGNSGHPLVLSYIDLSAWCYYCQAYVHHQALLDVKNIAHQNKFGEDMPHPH

[7] = tested on: SW620 human colon cancer cells; assay: Cell cycle analysis by flow cytometry; assay type: cell-based; conditions: compounds 10 μM, SAHA 1 μM, 24 h, vehicle 6.29%
[8] = tested on: SW620 human colon cancer cells; assay: Annexin V-FITC/PI dual staining apoptosis assay; assay type: cell-based; conditions: 10 μM, 24 h

| IC50 [6] [nM] | Structure (SMILES) | IC50 [2] [nM] | IC50 [3] [nM] | IC50 [4] [nM] | also measured |
| --- | --- | --- | --- | --- | --- |
| 40 ± 1 | O=C(/C=C/c1ccc2c(=O)n(Cc3ccccc3)cnc2c1)NO [Compound 10h, (E)-3-(3-Benzyl-4-oxo-3,4-dihydroquinazolin-7-yl)-N-hydroxyacrylamide] | 1180 ± 15 | 1320 ± 25 | – | – |
| 33 | O=C(/C=C/c1ccc2c(=O)n(Cc3ccc(Cl)cc3)cnc2c1)NO [Compound 10l, (E)-3-(3-(4-Chlorobenzyl)-4-oxo-3,4-dihydroquinazolin-7-yl)-N-hydroxyacrylamide] | 899 ± 45 | 767 ± 25 | – | cells in G2/M phase [7]: 26.70%; induction of apoptosis (in words) [8]: substantially induced both early and late apoptosis; IC50 [1]: 671 to 1210 nM; fold more potent than SAHA [5]: 2- to 3 fold |
| 96 ± 6 | O=C(/C=C/c1ccc2c(=O)n(CCO)cnc2c1)NO [Compound 10c, (E)-N-Hydroxy-3-(3-(2-hydroxyethyl)-4-oxo-3,4-dihydroquinazolin-7-yl)acrylamide] | – | 5050 ± 399 | – | – |
| 23 | O=C(/C=C/c1ccc2c(=O)n(Cc3cccc(F)c3)cnc2c1)NO [Compound 10j, (E)-3-(3-(3-Fluorobenzyl)-4-oxo-3,4-dihydroquinazolin-7-yl)-N-hydroxyacrylamide] | 1914 ± 6 | 1396 ± 9 | – | – |
| 322 ± 13 | O=C(/C=C/c1ccc2c(=O)n(CCCl)cnc2c1)NO [Compound 10b, (E)-3-(3-(2-Chloroethyl)-4-oxo-3,4-dihydroquinazolin-7-yl)-N-hydroxyacrylamide] | 7660 ± 691 | 5550 ± 231 | – | – |
| 80 | CCn1cnc2cc(/C=C/C(=O)NO)ccc2c1=O [Compound 10a, (E)-3-(3-Ethyl-4-oxo-3,4-dihydroquinazolin-7-yl)-N-hydroxyacrylamide] | 2350 ± 56 | 1681 ± 8 | – | – |
| 48 ± 2 | CCCn1cnc2cc(/C=C/C(=O)NO)ccc2c1=O [Compound 10d, (E)-N-Hydroxy-3-(4-oxo-3-propyl-3,4-dihydroquinazolin-7-yl)acrylamide] | 1900 ± 53 | 1500 ± 135 | – | – |
| 42 ± 1 | O=C(/C=C/c1ccc2c(=O)n(Cc3ccc(F)cc3)cnc2c1)NO [Compound 10k, (E)-3-(3-(4-Fluorobenzyl)-4-oxo-3,4-dihydroquinazolin-7-yl)-N-hydroxyacrylamide] | 1490 ± 18 | 1490 ± 23 | – | – |
| 25 ± 1 | O=C(/C=C/c1ccc2c(=O)n(Cc3ccccc3F)cnc2c1)NO [Compound 10i, (E)-3-(3-(2-Fluorobenzyl)-4-oxo-3,4-dihydroquinazolin-7-yl)-N-hydroxyacrylamide] | 2100 ± 132 | 1950 ± 66 | – | – |
| 29 | CCCCn1cnc2cc(/C=C/C(=O)NO)ccc2c1=O [Compound 10e, (E)-3-(3-Butyl-4-oxo-3,4-dihydroquinazolin-7-yl)-N-hydroxyacrylamide] | 2749 ± 16 | 2860 ± 94 | 3685 ± 27 | – |
| 22 | O=C(/C=C/c1ccc2c(=O)n(CC3CCCC3)cnc2c1)NO [Compound 10f, (E)-3-(3-(Cyclopentylmethyl)-4-oxo-3,4-dihydroquinazolin-7-yl)-N-hydroxyacrylamide] | 3160 ± 213 | – | 3210 ± 83 | – |
| 47 ± 1 | Cc1ccc(Cn2cnc3cc(/C=C/C(=O)NO)ccc3c2=O)cc1 [Compound 10m, (E)-N-Hydroxy-3-(3-(4-methylbenzyl)-4-oxo-3,4-dihydroquinazolin-7-yl)acrylamide] | 769 ± 9 | 1210 ± 50 | 898 ± 47 | cells in G2/M phase [7]: 30.11%; induction of apoptosis (in words) [8]: substantially induced both early and late apoptosis; IC50 [1]: 671 to 1210 nM; fold more potent than SAHA [5]: 2- to 3 fold |

Continued, compound first:

| Structure (SMILES) | IC50 [6] [nM] | IC50 [2] [nM] | IC50 [3] [nM] | IC50 [4] [nM] | also measured |
| --- | --- | --- | --- | --- | --- |
| O=C(/C=C/c1ccc2ncn(Cc3ccccc3F)c(=O)c2c1)NO [Compound 9i, (E)-3-(3-(2-Fluorobenzyl)-4-oxo-3,4-dihydroquinazolin-6-yl)-N-hydroxyacrylamide] | – | 659 ± 20 | – | – | IC50 [1]: 639 to 1120 nM |
| O=C(/C=C/c1ccc2ncn(CCCl)c(=O)c2c1)NO [Compound 9b, (E)-3-(3-(2-Chloroethyl)-4-oxo-3,4-dihydroquinazolin-6-yl)-N-hydroxyacrylamide] | – | – | 3970 ± 391 | 4040 ± 53 | IC50 [1]: 3200 to 7040 nM; fold higher HDAC IC50 than that of SAHA [5]: ~20 fold |
| O=C(/C=C/c1ccc2ncn(Cc3ccc(Cl)cc3)c(=O)c2c1)NO [Compound 9l, (E)-3-(3-(4-Chlorobenzyl)-4-oxo-3,4-dihydroquinazolin-6-yl)-N-hydroxyacrylamide] | – | 1660 ± 28 | 1370 ± 30 | – | – |
| CCCCn1cnc2ccc(/C=C/C(=O)NO)cc2c1=O [Compound 9e, (E)-3-(3-Butyl-4-oxo-3,4-dihydroquinazolin-6-yl)-N-hydroxyacrylamide] | – | 1450 ± 15 | 1689 ± 14 | 1960 ± 103 | – |
| O=C(/C=C/c1ccc2ncn(CC3CCCC3)c(=O)c2c1)NO [Compound 9f, (E)-3-(3-(Cyclopentylmethyl)-4-oxo-3,4-dihydroquinazolin-6-yl)-N-hydroxyacrylamide] | – | 952 ± 29 | 1220 ± 100 | – | – |
| O=C(/C=C/c1cccc(S(=O)(=O)Nc2ccccc2)c1)NO [Belinostat, belinostat, reference compound] | – | – | 2530 ± 170 | – | – |
| CCCn1cnc2ccc(/C=C/C(=O)NO)cc2c1=O [Compound 9d, (E)-N-Hydroxy-3-(4-oxo-3-propyl-3,4-dihydroquinazolin-6-yl)acrylamide] | – | 1620 ± 74 | 2870 ± 224 | – | – |
| Cc1ccc(Cn2cnc3ccc(/C=C/C(=O)NO)cc3c2=O)cc1 [Compound 9m, (E)-N-Hydroxy-3-(3-(4-methylbenzyl)-4-oxo-3,4-dihydroquinazolin-6-yl)acrylamide] | – | 1380 ± 30 | 1260 ± 26 | – | – |
| O=C(/C=C/c1ccc2ncn(Cc3cccc(F)c3)c(=O)c2c1)NO [Compound 9j, (E)-3-(3-(3-Fluorobenzyl)-4-oxo-3,4-dihydroquinazolin-6-yl)-N-hydroxyacrylamide] | – | 1669 ± 5 | 1280 ± 13 | 2060 ± 58 | – |
| O=C(/C=C/c1ccc2c(=O)n(CC3CCCCC3)cnc2c1)NO [Compound 10g, (E)-3-(3-(Cyclohexylmethyl)-4-oxo-3,4-dihydroquinazolin-7-yl)-N-hydroxyacrylamide] | – | – | 2540 ± 26 | – | fold lower HDAC6 IC50 than IC50 in Hela nuclear extract assay ([6]; HDAC6 vs total HDAC extract): 10 fold |
| CCn1cnc2ccc(/C=C/C(=O)NO)cc2c1=O [Compound 9a, (E)-3-(3-Ethyl-4-oxo-3,4-dihydroquinazolin-6-yl)-N-hydroxyacrylamide] | – | 5787 ± 3 | – | – | IC50 [1]: 3200 to 7040 nM; fold higher HDAC IC50 than that of SAHA [5]: approximately 10 fold |
| O=C(/C=C/c1ccc2ncn(Cc3ccc(F)cc3)c(=O)c2c1)NO [Compound 9k, (E)-3-(3-(4-Fluorobenzyl)-4-oxo-3,4-dihydroquinazolin-6-yl)-N-hydroxyacrylamide] | – | 1370 ± 72 | 1040 ± 13 | 1900 ± 55 | – |
| O=C(/C=C/c1ccc2ncn(CCO)c(=O)c2c1)NO [Compound 9c, (E)-N-Hydroxy-3-(3-(2-hydroxyethyl)-4-oxo-3,4-dihydroquinazolin-6-yl)acrylamide] | – | 4309 ± 40 | 4650 ± 171 | 3670 ± 67 | – |
| O=C(/C=C/c1ccc2ncn(CC3CCCCC3)c(=O)c2c1)NO [Compound 9g, (E)-3-(3-(Cyclohexylmethyl)-4-oxo-3,4-dihydroquinazolin-6-yl)-N-hydroxyacrylamide] | – | 1291 ± 3 | 997 ± 18 | – | – |
